From US5015629A, “Tissue repair” (University of Southern California, priority 1990, dated 1991)

System: bovine endothelial cells
Assay type: cell-based
Experimental: In a second example, the effects of angiotensin II on proliferation (mitogenesis) and directional migration (chemotaxis) of endothelial cells were determined. In this regard, it is important to consider that tissue repair requires proper neovascularization, and that new blood vessel growth for wound repair requires endothelial cell replication, migration and orientation. Wound healing factors must be able to stimulate chemotaxis and cell proliferation in addition to initiating new blood vessel growth. The proliferation (mitogenesis) and the directional orientation of such cells (chemotaxis) was studied in vitro using bovine aortal endothelial cells. […] Background radioactivity (noncell-associated) was assessed by removing some filters immediately after the addition of cells prior to cellular migration, and processing these control filters the same way as the test filters. […] The latter was calculated by the following formula: [formula] where R equals the radioactivity in cpm associated with each test filter, B equals the cpm obtained from the background filters, T equals the cpm obtained from a volume (V) of cells in suspension at a known concentration (C) and S equals the cpm obtained from the cell supernate (noncellular, or unbound radioactivity). […]

CC[C@H](C)[C@H](NC(=O)[C@H](Cc1ccc(O)cc1)NC(=O)[C@@H](NC(=O)[C@H](CCCNC(=N)N)NC(=O)[C@@H](N)CC(=O)O)C(C)C)C(=O)N[C@@H](Cc1c[nH]cn1)C(=O)N1CCC[C@H]1C(=O)N[C@@H](Cc1ccccc1)C(=O)O [angiotensin II]
ED50 of chemotaxis: 3 nanogram/ml
